Values of other authors, collected in patent publication US12268783B2, “Platform drug delivery system utilizing crystal engineering and theanine dissolution” (THEAPRIN PHARMACEUTICALS, INC., priority 2015, dated 2025).

Test system: Chironex fleckeri venom
Conditions: mice following venom injection

In the case of zinc gluconate, the survival time is given as “prolonged survival time”.
